Data published in article PMC8836179, “Transport Turnover Rates for Human OCT2 and MATE1 Expressed in Chinese Hamster Ovary Cells” (International Journal of Molecular Sciences, 2022).
Values joined by “and” are separate entries in the source; they are usually repeats but may differ in a detail not shown here. Equal values may be shown once.

What was measured:
[1] = target: T1, hOCT2 (Homo sapiens, UniProt O15244); assay: OCT2-mediated substrate uptake kinetics and turnover rate in stably expressing CHO cells; format: in vitro ADME; conditions: for Jmax (maximum rate of mediated substrate transport) / Kt (Ktapp, apparent Michaelis constant): CHO cells stably expressing OCT2, 60-s uptakes, pH 7.4, mean ± SD; for TOR (turnover rate): Jmax divided by cell surface OCT2 abundance (154 ± 70.7 fmol cm^−2), CHO cells
T1 construct: expressed in transfected cells; vector pcDNA5/FRT/V5-His TOPO
T1 sequence (O15244 1-555): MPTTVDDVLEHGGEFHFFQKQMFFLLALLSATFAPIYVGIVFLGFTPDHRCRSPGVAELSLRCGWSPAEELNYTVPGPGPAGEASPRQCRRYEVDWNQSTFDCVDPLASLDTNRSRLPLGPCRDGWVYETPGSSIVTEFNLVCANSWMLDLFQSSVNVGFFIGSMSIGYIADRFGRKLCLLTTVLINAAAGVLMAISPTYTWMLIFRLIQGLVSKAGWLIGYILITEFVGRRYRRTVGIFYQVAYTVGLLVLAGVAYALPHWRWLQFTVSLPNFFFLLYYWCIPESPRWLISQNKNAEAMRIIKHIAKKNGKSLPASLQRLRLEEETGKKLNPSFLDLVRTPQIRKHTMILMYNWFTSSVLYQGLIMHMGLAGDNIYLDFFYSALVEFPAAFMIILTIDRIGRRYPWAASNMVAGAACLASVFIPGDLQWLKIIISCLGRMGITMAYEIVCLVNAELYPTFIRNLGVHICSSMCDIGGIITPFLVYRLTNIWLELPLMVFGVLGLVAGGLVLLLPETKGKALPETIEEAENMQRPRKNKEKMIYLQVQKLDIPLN
Procedure: (§1) The calculation of TOR values involved dividing the maximal rates of substrate transport (Jmax) by the number of cell-surface-expressed transporters (Table 1).
(§2) Chinese hamster ovary (CHO) cells with a single integrated Flp-In recombination site were obtained from Invitrogen (Carlsbad, CA, USA). […] Cells were passaged every 3–4 days and maintained at 37 °C in a humidified environment with 5% CO2. Continued expression of MATE1 and OCT2 in these cell lines was maintained using hygromycin (200 µg/mL; Invitrogen, Carlsbad, CA) selection pressure; continued expression of the Flp-In recombination site in wild-type (WT; non-transporter expressing) CHO cells was maintained using Zeocin (100 µg/mL; Invitrogen) selection pressure. When seeded into 96-well plates (Greiner; VWR Intl., Arlington Heights, IL, USA) for transport assays, cells were grown to confluence in antibiotic-free medium.
(§3) Cells were seeded in 96 well plates with 200 µL of cell media containing 550,000 cells/mL or 275,000 cells/mL, and experiments were performed 24 or 48 h later, respectively. To begin an experiment, media was aspirated and the wells were washed for three cycles over 12 s with 300 µL of room temperature (~23 °C) Waymouth Buffer (WB; 135 mM NaCl, 13 mM HEPES, 2.5 mM CaCl2·2H2O, 1.2 mM MgCl2, 0.8 mM MgSO4·7H2O, 5 mM KCl, and 28 mM D-glucose; pH 7.4) using an automatic microplate washer (Model 405, BioTek, Winooski, VT, USA). For studies of OCT2-mediated transport, uptake was initiated by addition of 60 µL of WB containing radiolabeled substrate and other compounds, as needed. For studies of MATE1-mediated transport, the cells (MATE1-expressing and control cells) were exposed to an ammonia pulse method that we previously used to elevate cytoplasmic [H^+] to a level (~6.0 pH; [61]) that effectively saturates the cytoplasmic face of the exchanger with H^+ [51]. Briefly, cells were preincubated for 20 min (room temp) in buffer containing 20 mM NH4Cl (the first step in establishing an outwardly-directed H^+ gradient; [60]). Plates were then placed in the automatic fluid aspirator/dispenser and rinsed/aspirated three times with room temperature WB (pH 7.4), and transport was initiated by aspirating this medium and replacing it with 60 µL of an NH4Cl-free medium containing labeled substrate, thereby, establishing a trans H^+ gradient, qualitatively similar to the conditions that support MATE1-mediated transport in renal proximal tubules. For all experiments, transport buffers were added using a VIAFLO 96-well multichannel pipet (Integra Biosciences, Hudson, NH, USA). At specified time intervals, transport was terminated by rinsing with three cycles of cold WB (300 µL). Following rinsing and final aspiration, 200 µL of scintillation cocktail (Microscint 20, Perkin-Elmer, Waltham, MA, USA) was added to each well. The plates were sealed (Topseal-A, Perkin Elmer), and after sitting for at least two hours, accumulated radioactivity was determined in a six-channel multiwell scintillation counter (Wallac Trilux 1450 Microbeta, Perkin-Elmer).
(§4) The method described here is a minor modification of that described by Pelis et al..

[2] = target: T2, hMATE1 (Homo sapiens, UniProt Q96FL8); assay: MATE1-mediated substrate uptake kinetics and turnover rate in stably expressing CHO cells; format: in vitro ADME; conditions: for Jmax (maximum rate of mediated substrate transport) / Kt (Ktapp, apparent Michaelis constant): CHO cells stably expressing MATE1, 60-s uptakes, outwardly-directed H+ gradient (ammonia pulse), mean ± SD; for TOR (turnover rate): Jmax divided by cell surface MATE1 abundance (21.9 ± 18.1 fmol cm^−2), CHO cells
T2 construct: expressed in transfected cells; vector pcDNA5/FRT/V5-His TOPO
T2 sequence (Q96FL8 1-570): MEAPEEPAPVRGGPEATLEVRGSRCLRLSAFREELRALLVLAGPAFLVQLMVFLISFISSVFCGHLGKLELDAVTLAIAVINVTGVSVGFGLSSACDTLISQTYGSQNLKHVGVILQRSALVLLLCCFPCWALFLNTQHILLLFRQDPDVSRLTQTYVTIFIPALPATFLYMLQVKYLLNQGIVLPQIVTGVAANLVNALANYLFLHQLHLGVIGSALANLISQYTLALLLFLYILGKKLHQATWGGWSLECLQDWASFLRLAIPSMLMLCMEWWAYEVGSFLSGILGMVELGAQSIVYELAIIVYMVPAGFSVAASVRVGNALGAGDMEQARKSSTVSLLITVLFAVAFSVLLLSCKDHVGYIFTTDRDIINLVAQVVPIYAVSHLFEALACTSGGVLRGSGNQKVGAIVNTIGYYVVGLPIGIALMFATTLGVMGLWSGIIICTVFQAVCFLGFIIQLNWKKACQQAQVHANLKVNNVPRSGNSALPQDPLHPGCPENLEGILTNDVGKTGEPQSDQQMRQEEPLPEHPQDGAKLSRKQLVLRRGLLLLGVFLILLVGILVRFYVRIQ
Procedure: as §1, §2, §3, §4

Structure (SMILES)	Jmax (maximum rate of mediated substrate transport) [1]	Kt (Ktapp, apparent Michaelis constant) [1]	TOR (turnover rate) [1] [s⁻¹]	Jmax (maximum rate of mediated substrate transport) [2]	Kt (Ktapp, apparent Michaelis constant) [2]	TOR (turnover rate) [2] [s⁻¹]	Jmax (maximum rate of mediated substrate transport) ([1]; listed as metformin)	Kt (Ktapp, apparent Michaelis constant) ([1]; listed as metformin) [µM]	Jmax (maximum rate of mediated substrate transport) ([2]; listed as metformin) [pmol cm^−2 min^−1]	TOR (turnover rate) ([2]; listed as metformin)	Kt (Ktapp, apparent Michaelis constant) ([2]; listed as atenolol) [µM]
C[n+]1ccc(-c2ccccc2)cc1 [MPP, 1-Methyl-4-phenylpyridinium]	59 ± 6.6 pmol cm^−2 min^−1 and 58.5 ± 6.6 pmol cm^−2 min^−1 and 58 pmol cm^−2 min^−1 and 58.5 ± 6.6 (n = 3) pmol cm^−2 min^−1	17.5 ± 2.1 µM	7.1 ± 2.4	241 ± 85 pmol cm^−2 min^−1 and 241 ± 84.9 (n = 4) pmol cm^−2 min^−1	66 ± 6.8 µM	297 ± 201	–	–	–	–	–
CN(C)C(=N)N=C(N)N [Metformin, metformin]	509 ± 39 pmol cm^−2 min^−1 and 509 ± 39.0 (n = 2) pmol cm^−2 min^−1	427 ± 48 µM and 427 ± 48.0 µM	70	1802 ± 1147 pmol cm^−2 min^−1 and 1802 ± 1147 (n = 4) pmol cm^−2 min^−1	664 ± 302 µM	1894 ± 1282	509 ± 39 pmol cm^−2 min^−1 and 509 pmol cm^−2 min^−1	427 ± 48	1802 ± 1147	~ 1900 s^−1	–
CC(C)NCC(O)COc1ccc(CC(N)=O)cc1 (stereo not drawn) [Atenolol, atenolol]	–	–	–	–	354 ± 96 µM and 354 ± 95.9 µM	–	–	–	–	–	354 ± 96
